Series [1] is described as follows: Microsomal stability (intrinsic clearance), rat. It counts as in vitro ADME. The following applies: for microsomal CLint: liver microsomes. The source says:
A microsomal stability assay is used to measure in vitro clearance (Clint). The assay involves measuring the rate of disappearance of a compound due to its intrinsic attitude to be metabolized (“intrinsic” meaning that the disappearance is not affected by other properties like permeability, binding etc. that play a role when quantifying in vivo clearance). The microsomal stability (intrinsic clearance, Clint) and, thus, metabolic stability is generally given as μl/min/mg protein. It can be visualized as the volume of solution that 1 mg of microsomes is able to clear of the compound in one minute. The microsomal/metabolic stability of each compound was determined by measurement of the change in LC-MS/MS peak area over time. Data are fitted according to a log linear model in line with Michaelis/Menten. The Clint value is calculated from the slope (k) of the linear log transformed concentration per time plot divided by the amount of microsomes (0.5 mg/ml): Clint (μl/min/mg protein)=k*1000/protein concentration. Assay Explorer software was used to automatically calculate the slope k of the decline.
(Liver microsomes are vesicles of endoplasmic reticulum, rich in cytochrome P450 enzymes.)

Series [2] has as its target T1, human phosphodiesterase-4A1A (Homo sapiens, UniProt P27815).
T1 construct: purchased Cerep 4074; host or cells: Sf9 cells
The series is described as follows: PDE4A1A assay (Cerep). It counts as biochemical. How it is done:
A commercially available assay of Cerep was used (Catalog ref. 4074; SOP no 1C1056), which is designed to evaluate the effects of compounds on the activity of the human phosphodiesterase-4A1A quantified by measuring the formation of 5′AMP from cAMP using a human recombinant enzyme expressed in Sf9 cells.
The test compound, reference compound or water (control) are added to a buffer containing 40 mM Tris/HCl (pH 7.4) and 8 mM MgCl2, 450 nM cAMP and 0.25 μCi [^3H]cAMP.
Thereafter, the reaction is initiated by addition of the enzyme (about 10 U) and the mixture is incubated for 20 min at 22° C.
For basal control measurements, the enzyme is omitted from the reaction mixture.
Following incubation SPA beads are added.
After 30 min at 22° C. under shaking, the amount of [^3H]5′AMP is quantified with a scintillation counter (Topcount, Packard).
The results are expressed as a percent inhibition of the control enzyme activity.
The standard inhibitory reference compound is Ro 20-1724, which is tested in each experiment at several concentrations to obtain an inhibition curve from which its IC50 value is calculated.

The test system of series [3] is pCHK1 (Cellular mechanistic ATR, HCT-116). The series can be described thus: pCHK1 cellular assay. It is filed as cell-based, human.
Series [4] deals with HBCx-10 patient-derived triple-negative breast cancer xenograft. The series can be described thus: HBCx-10 patient-derived xenograft, combination with olaparib. It counts as in vivo, immunodeficient female mice. The conditions noted are these: 100 mg/kg p.o. (3 d on/4 d off)×7 with olaparib 50 mg/kg p.o. qd×49. How it is done: Seventy (70) mice with a subcutaneously growing HBCx-10 tumor (P20.1.4/0) between 62.5 and 196.0 mm^3 were allocated to treatment when their mean and median tumor volume reached 131.16 and 126.00 mm^3 respectively.
Tumors were measured biweekly during the treatment period and once a week during the follow-up period.

Series [5] in a line: Microsomal stability (intrinsic clearance), mouse. It counts as in vitro ADME. The arrangement: microsomal CLint: dose or concentration left out as unconfirmed. The conditions noted are these: for CLint (mouse): mouse microsomes. The text has this: (§1) A microsomal stability assay is used to measure in vitro clearance (Clint). The assay involves measuring the rate of disappearance of a compound due to its intrinsic attitude to be metabolized (“intrinsic” meaning that the disappearance is not affected by other properties like permeability, binding etc. that play a role when quantifying in vivo clearance). The microsomal stability (intrinsic clearance, Clint) and, thus, metabolic stability is generally given as μl/min/mg protein. It can be visualized as the volume of solution that 1 mg of microsomes is able to clear of the compound in one minute.
(§2) A Tecan Genesis workstation (RSP 150/8) was used for to perform the microsomal incubations. Analysis was carried out using a Waters ACQUITY UPLC system coupled to an ABSciex API3000 mass spectrometer. Data analysis was performed using Assay Explorer (Symyx).
(§3) • Potassium phosphate buffer: 0.05 M potassium phosphate buffer pH 7.4 containing 1 mM MgCl2 • NADPH (nicotinamide adenine dinucleotide phosphate): 22.5 mg NADPH-Na4 in 1.8 ml potassium phosphate buffer • Acetonitrile: 50 Vol % acetonitrile (1 volume acetonitrile, 1 volume water) • DMSO: 20 Vol % DMSO in water • Stock solution of 20 mg/ml human or mouse liver microsomes (protein)/ml in phosphate buffer • Stock solution of 10 mM compound in 100% DMSO
(§4) Dilution of test compounds was done in 2 steps starting from a 10 mM stock solution of the respective compound in 100% DMSO. First 4 μl stock solution was added to 196 μl of 20 Vol % DMSO. In a second step, 10 μl of the first dilution were added to 1590 μl potassium phosphate buffer to achieve a final concentration of 1.25 μM in the final compound dilution. Thus, the amount of organic solvent in the assay was kept to a minimum (<1%).
(§5) The human or mouse liver microsome (protein) solution to be used in the assay was prepared by mixing 750 μl stock solution (20 mg/ml) and 2250 μl potassium phosphate buffer to a final concentration of 5 mg/ml.
(§6) Incubation was carried out on a 96 deep well incubation plate. […]

Series [6] can be described thus: Microsomal stability (intrinsic clearance), human. It is filed as in vitro ADME. The arrangement: microsomal CLint: dose or concentration left out as unconfirmed. The following applies: for microsomal CLint: liver microsomes, pH 7.4.
From the text: as §1, §2, §3, §4, §5, §6

Where [7] appears, read: Homo sapiens, HCT-116, HCT-116 as printed in the table.

T1 sequence (P27815 1-647 isoform P27815-4): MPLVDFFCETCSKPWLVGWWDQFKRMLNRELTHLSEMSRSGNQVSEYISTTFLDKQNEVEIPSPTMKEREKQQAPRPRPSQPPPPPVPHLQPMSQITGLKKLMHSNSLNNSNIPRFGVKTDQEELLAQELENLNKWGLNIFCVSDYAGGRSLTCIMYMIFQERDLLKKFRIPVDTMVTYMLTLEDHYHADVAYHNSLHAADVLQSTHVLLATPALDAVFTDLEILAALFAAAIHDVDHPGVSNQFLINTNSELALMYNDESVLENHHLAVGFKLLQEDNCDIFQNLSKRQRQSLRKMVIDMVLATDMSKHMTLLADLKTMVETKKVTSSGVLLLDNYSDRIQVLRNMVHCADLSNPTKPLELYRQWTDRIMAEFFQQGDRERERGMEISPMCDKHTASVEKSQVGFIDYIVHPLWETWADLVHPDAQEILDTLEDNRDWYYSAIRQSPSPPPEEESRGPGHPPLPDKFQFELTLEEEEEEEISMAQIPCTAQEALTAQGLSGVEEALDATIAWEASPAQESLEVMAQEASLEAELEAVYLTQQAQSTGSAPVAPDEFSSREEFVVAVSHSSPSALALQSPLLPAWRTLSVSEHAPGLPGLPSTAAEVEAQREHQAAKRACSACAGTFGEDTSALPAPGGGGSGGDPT

For `COc1cc2ncc3c(c2cc1-c1cn(C)nc1C)n(-c1c(F)cncc1OC)c(=O)n3C` (single isomer, unassigned) [Compound 1, 8-(1,3-Dimethyl-1H-pyrazol-4-yl)-1-(Sa)-(3-fluoro-5-methoxy-pyridin-4-yl)-7-methoxy-3-methyl-1,3-dihydro-imidazo[4,5-c]quinolin-2-one], the microsomal CLint in series [1] and in series [6] was < 10 µL/min/mg throughout. Moreover, the IC50 (usually the concentration needed to halve the response being measured) in series [2] was 5.2 µM; in series [3] (setting [7]), ≥ 24 µM. In series [4], the “Anti-tumor efficacy in combination with olaparib” value is “efficacy of Compound 1 in combination with olaparib was demonstrated”. For the same compound, the “CLint (mouse)” value in series [5] worked out at 22 μl/min/mg protein.
Take `COc1cc2ncc3c(c2cc1-c1cn(C)nc1C)n(-c1c(F)cncc1OC)c(=O)n3C` (single isomer, unassigned) [Compound 2, 8-(1,3-Dimethyl-1H-pyrazol-4-yl)-1-(Ra)-(3-fluoro-5-methoxy-pyridin-4-yl)-7-methoxy-3-methyl-1,3-dihydro-imidazo[4,5-c]quinolin-2-one]: the “CLint (rat)” value in series [1] (rat microsomes) is on record as < 10 μl/min/mg protein. Besides, the values for the half-maximal inhibitory concentration (IC50) in series [2] and in series [3] (HCT-116) were 0.93 µM and > 30 µM, respectively. The “CLint (mouse)” value in series [5] is listed as 103 μl/min/mg protein. In addition, the “CLint (human)” value in series [6] (human microsomes) is given as < 10 μl/min/mg protein.
Take `COc1cc2ncc3c(c2cc1-c1cn(C)nc1C)n(-c1c(F)cncc1OC)c(=O)n3C` [Compound Y, 8-(1,3-dimethyl-1H-pyrazol-4-yl)-1-(3-fluoro-5-methoxypyridin-4-yl)-7-methoxy-3-methyl-1,3-dihydroimidazo[4,5-c]quinolin-2-one, reference compound]: the microsomal CLint (commonly the capacity of the preparation to metabolise the compound, expressed as a volume cleared per time) in series [1] amounted to 19 µL/min/mg; in series [5] (mouse, liver microsomes, pH 7.4, mouse microsomes) it was 61 µL/min/mg; in series [6] it was 19 µL/min/mg. Also, the concentration for half-maximal inhibition (IC50) in series [2] came to 1.1 µM; in series [3] (setting [7]) it was 7.9 µM.

The record behind these values is patent US20250188080A1, “IMIDAZOLONYLQUINOLINE COMPOUNDS AND THERAPEUTIC USES THEREOF” (Merck Patent GmbH, priority 2019, published 2025).
